In brackets after ≈: the same amount, converted by molar mass. Where two headings read alike, the source gives them in different places.
What was measured:
[1] = tested on: XDR-TB clinical isolates; test: microbe, parasite or virus in culture; assay type: cell-based, Mycobacterium tuberculosis; conditions: for MIC: Mycobacterium tuberculosis
[2] = tested on: Mycobacterium tuberculosis H37Rv; test: microplate Alamar blue assay (MABA), MIC; assay type: cell-based; conditions: replicating H37Rv
[3] = tested on: Mycobacterium tuberculosis Erdman; test: microplate Alamar blue assay (MABA), MIC; assay type: cell-based
[4] = tested on: Vero cells; test: cytotoxicity, MTT assay; assay type: cell-based; conditions: Chlorocebus sabaeus, Vero; cytotoxicity; read-out: IC50 Vero
Experimental: The compounds were examined for toxicity (IC50) using MTT assay. Briefly, cells (3 ~ 5 × 10^3 cells/well) were seeded in a 96-well plate. After 24 h incubation, the cells were treated with various concentrations of drugs for 24, 48, 72 h, respectively. Columns one and two in the assay plates contained-media +0.1% DMSO for a negative control ,Then, 20 μl of a 5 mg/mL MTT solution was added to each well, and the plates were incubated for an additional 2~4 h at 37 °C. The medium was subsequently discarded, and DMSO 150 μL was added to dissolve the formazan. Oscillate 15 min, the OD 570 was measured using a Spectra MAX M5 microplate spectrophotometer (Molecular Devices, CA, USA), and the IC50 values were calculated.
Compound MIC was conducted by ShangHai Chempartner Co., Ltd (Shanghai, China) using the microplate Alamar Blue assay (MABA) against Mycobacterium tuberculosis H37Ra (ATCC 25177). Cytotoxicity of tested compounds was assessed on Vero cells.

[5] = tested on: M. tuberculosis H37Rv; test: MABA checkerboard synergy assay; assay type: cell-based, Mycobacterium tuberculosis
[6] = tested on: MDR-TB clinical isolates; test: microbe, parasite or virus in culture; assay type: cell-based; conditions: Mycobacterium tuberculosis
[7] = tested on: M. tuberculosis Erdman in J774A.1 cells; test: macrophage assay, intracellular activity; assay type: cell-based, Mycobacterium tuberculosis
Experimental: As described previously, J774A.1 cells were grown in 75-cm2 cell culture flasks in 10% FBS in Dulbecco’s modified Eagle’s medium (DMEM) until confluency. The cells were detached using a cell scraper, and then centrifuged at 200 g for 5 min at room temperature. The cells were incubated at 37 °C under 5% CO2 for 16 h after distributing into 24-well plates containing coverslips. M. tuberculosis Erdman (ATCC 35801) were diluted to a final concentration of 1 × 10^5 to 3 × 10^5 CFU/mL with DMEM after thawing and sonicating from frozen cultures. And 500 ul of the dilution was dispensed to each well of a new 24-well plate. Followed by, J774A.1 cells on coverslips were infected by incubation with M. tuberculosis Erdman at 37 °C for 2 h. Coverslips were then washed with HBSS and transferred to new 24-well plates. The Cultures were treated in triplicate with compounds at 0.02 μM containing DMEM and incubated at 37 °C under 5% CO2 for 16 h. At D 0 (for untreated controls) and after 7 days of incubation, macrophage cells were lysed by addition of 200 μL of 0.25% sodium dodecyl sulfate. The plates were incubated at 37 °C for 10 min, and 200 μL of DMEM was added. The lysate was sampled using a microtube and sonicated for 15 s. Then 1:1, 1:10, 1:100, and 1:1,000 dilutions were plated on 7H11 agar plates and CFU counts determined after 2 to 3 weeks of incubation at 37 °C.

[8] = tested on: M. tuberculosis Erdman; test: in vivo acute M.tb Erdman infection mouse model; set-up: species or system Mycobacterium tuberculosis; conditions: BALB/c mice
[9] = clinical isolate, Table 2 prints no unit, test range 0.0156 to 64 μg/mL
[10] = read-out: MIC, XDR-TB strain X15
[11] = read-out: MIC, XDR-TB strain X17

C[C@H]1COc2c(N3CCN(C)CC3)c(F)cc3c(=O)c(C(=O)O)cn1c23 [LVFX, levo-ofloxacin]
MIC, XDR-TB strain X15 [1, 9]: 4 µg/mL (≈ 11.1 µM) | MIC, XDR-TB strain X17 [1, 9]: 32 µg/mL (≈ 88.6 µM)

CC1COc2c(N3CCN(C)CC3)c(F)cc3c(=O)c(C(=O)O)cn1c23 (stereo not drawn) [OFLX, ofloxacin]
MIC [1, 10]: 8 µg/mL (≈ 22.1 µM) | MIC [1, 11]: 32 µg/mL (≈ 88.6 µM)

O=c1nc(N2CCN(CC3CCCCC3)CC2)sc2c([N+](=O)[O-])cc(C(F)(F)F)cc12 [PBTZ169]
MIC [2]: 0.02 µg/mL (≈ 0.0438 µM) | MIC [3]: ≤ 0.05 µg/mL | IC50 [4]: > 100 µg/mL

NCC[C@H](O)C(=O)N[C@@H]1C[C@H](N)[C@@H](O[C@H]2O[C@H](CN)[C@@H](O)[C@H](O)[C@H]2O)[C@H](O)[C@H]1O[C@H]1O[C@H](CO)[C@@H](O)[C@H](N)[C@H]1O [AMK, amikacin]
MIC [1, 10]: 64 µg/mL (≈ 109 µM) | MIC [1, 11]: 64 µg/mL (≈ 109 µM)

COc1c(N2C[C@@H]3CCCN[C@@H]3C2)c(F)cc2c(=O)c(C(=O)O)cn(C3CC3)c12 [MOX, moxifloxacin]
MIC ([5]; Mycobacterium tuberculosis, H37RV, 336 h, checkerboard, drug alone, read-out: MIC against H37Rv, MIC alone): 0.037 µg/mL | MIC against H37Rv, MIC in combo. ([5]; in combination with TB1001): 0.021 µg/mL

CO[C@H]1/C=C/O[C@@]2(C)Oc3c(C)c(O)c4c(O)c(c(/C=N/N5CCN(C)CC5)c(O)c4c3C2=O)NC(=O)/C(C)=C\C=C\[C@H](C)[C@H](O)[C@@H](C)[C@@H](O)[C@@H](C)[C@H](OC(C)=O)[C@@H]1C [RMP, rifampicin]
MIC ([6]; read-out: MIC, MDR-TB strain M3): 64 µg/mL (≈ 77.8 µM) | MIC ([6]; read-out: MIC, MDR-TB strain M4): 64 µg/mL (≈ 77.8 µM) | MIC ([6]; read-out: MIC, MDR-TB strain M8): 64 µg/mL (≈ 77.8 µM) | MIC ([6]; read-out: MIC, MDR-TB strain M18): 64 µg/mL (≈ 77.8 µM) | MIC [1, 10]: 64 µg/mL (≈ 77.8 µM) | MIC [1, 11]: 64 µg/mL (≈ 77.8 µM) | MIC against H37Rv, MIC in combo. ([5]; in combination with BTZ043): 0.007 µg/mL | MIC against H37Rv, MIC in combo. ([5]; in combination with TB1001): 0.001 µg/mL | decrease of MIC ([5]; in the presence of SKLB-TB1001): 6 fold | Log10 CFU, intracellular Mtb Erdman ([7]; J774A.1 macrophages, 0.02 μM (Fig. 2 legend: 0.02 μg/mL), 7 days): 6.44 | Fold(log) reduction ([7]; decrease of log10 CFU between D7 and treatment group, J774A.1, 0.02 μM (Fig. 2 legend: 0.02 μg/mL)): 0.41 log | reduction of bacterial concentration in lungs compared to vehicle control group ([8]; 15 mg/kg oral): 2.5 logs | Log10 CFU (SD), bacterial burden in mouse lungs ([8]; Day-36, 15 mg/kg oral daily from day 10): 3.73 (3.19)
